Experimental data taken from patent US20260201008A1, “SECRETIN-DERIVED GLP1R SELECTIVE AGONISTS” (GUBRA A/S, priority 2023, published 2026).
Read-outs that look alike come from different tables or passages of the source. Numbered stars: 1 amine (or outer) side, 2 acyl side, 3 side chain; on linkers, the order of the positions; unused ones are H or OH. Square brackets hold non-standard residues; d marks the D form. Side chains are listed from the residue outwards. Peptide text beside a SMILES is read from it. * marks the point of attachment. C20 diacid = O=C(O)CCCCCCCCCCCCCCCCCCC(=O)*; γGlu = O=C(O)[C@H](CCC(=O)[*:2])N[*:1]; AEEA = NCCOCCOCC(=O)O; Aib = CC(C)(N)C(=O)O

Columns and labels:
SCTR = SCTR (Homo sapiens, UniProt P47872); assay: hSCTR potency, cAMP accumulation in CHO-K1 cells stably overexpressing hSCTR; assay type: cell-based; parameters: alternatively Euroscreen ES-712-AF; FAST-0161L; host or cells: CHO-K1; details: cAMP accumulation
SCTR, sequence (P47872 23-440): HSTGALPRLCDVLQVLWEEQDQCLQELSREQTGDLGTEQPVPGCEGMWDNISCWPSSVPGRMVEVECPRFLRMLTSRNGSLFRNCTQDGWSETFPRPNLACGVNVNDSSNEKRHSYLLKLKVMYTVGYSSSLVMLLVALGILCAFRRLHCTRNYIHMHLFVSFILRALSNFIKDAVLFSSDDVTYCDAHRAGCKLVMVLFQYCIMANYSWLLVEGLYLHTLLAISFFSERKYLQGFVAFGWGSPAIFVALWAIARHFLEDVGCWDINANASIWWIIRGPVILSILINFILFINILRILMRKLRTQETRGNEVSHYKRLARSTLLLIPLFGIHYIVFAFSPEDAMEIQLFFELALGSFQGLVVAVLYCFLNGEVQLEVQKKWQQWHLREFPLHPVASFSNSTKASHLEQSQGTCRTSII
Procedure, shortened: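 EC50 derived from variable-slope nonlinear regression on 11-point, 3-fold series run in duplicate (crude peptides: 5 points, 10-fold, n=1). Compound stimulation lasted 30 min at room temperature in casein/IBMX-containing DPBS (0.05%, 0.5 mM), 2000 cells/well; cAMP detected by time-resolved FRET after one hour.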

GLP1R = GLP1R (Homo sapiens, UniProt P43220); assay: hGLP1R potency, cAMP accumulation in CHO-K1 cells stably overexpressing hGLP1R; assay type: cell-based; parameters: host or cells: CHO-K1; details: for EC50: cAMP accumulation; for SCTR EC50/GLP1R EC50 ratio: cAMP accumulation in CHO-K1 cells; for Selectivity: SCTR EC50/GLP1R EC50 ratio
GLP1R, sequence (P43220 24-463): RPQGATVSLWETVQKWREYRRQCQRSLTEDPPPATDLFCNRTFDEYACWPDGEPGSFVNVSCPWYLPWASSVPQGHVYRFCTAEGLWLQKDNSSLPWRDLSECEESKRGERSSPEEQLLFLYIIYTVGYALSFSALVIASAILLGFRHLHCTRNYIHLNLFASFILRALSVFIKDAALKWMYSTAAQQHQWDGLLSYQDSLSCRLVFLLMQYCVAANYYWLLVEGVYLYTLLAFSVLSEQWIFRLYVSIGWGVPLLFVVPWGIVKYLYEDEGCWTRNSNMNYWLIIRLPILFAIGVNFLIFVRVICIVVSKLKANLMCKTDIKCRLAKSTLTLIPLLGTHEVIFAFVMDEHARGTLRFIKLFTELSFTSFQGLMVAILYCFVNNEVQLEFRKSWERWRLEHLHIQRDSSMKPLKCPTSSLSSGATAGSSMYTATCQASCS
Procedure, shortened: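 EC50 derives from variable-slope nonlinear regression of cAMP HTRF signal, with purified peptides tested as 11 three-fold dilutions in duplicate. Assay: hGLP1R-overexpressing CHO-K1 cells, 0.5 mM IBMX, 0.05% casein in DPBS, 30 min room-temperature stimulation, GLP-1(7-36) as reference agonist.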

[1] = Turbidity of crude library peptides (absorbance at 600 nm); assay type: physicochemical; details: Physical stability of peptides
Procedure, shortened: (§1)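 Turbidity is the absorbance at 600 nm, taken before heating. Fibril signal is the mean ThT emission at 480 nm (450 nm excitation), read every 10 min over 72 h at 40° C with 700 rpm shaking between reads. Peptides at 267 μM, pH 4.0 acetate or pH 7.0 phosphate buffer (50 mM), 4 μM ThT final.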

[2] = Fibril formation of crude library peptides (Thioflavin T); assay type: physicochemical; parameters: key: average ThT fluorescence emission at 480 nm (ex 450 nm), raw units; details: Physical stability of peptides
Procedure, shortened: as §1

[3] = CHO-K1 cells overexpressing hSCTR, read-out: hSCTR pEC50 (converted)
[4] = CHO-K1 cells overexpressing hGLP1R, read-out: hGLP1R pEC50 (converted)
[5] = selectivity for hGLP1R over hSCTR
[6] = CHO-K1 cells overexpressing hSCTR, read-out: pEC50 hSCTR (converted)
[7] = CHO-K1 cells overexpressing hGLP1R, read-out: pEC50 hGLPR1 (converted)

Compound	EC50 (SCTR; [3]) [nM]	EC50 (GLP1R; [4]) [nM]	SCTR EC50/GLP1R EC50 ratio (GLP1R; [5])	Turbidity (pH 7) [1]	Fibril formation [2]	EC50 (SCTR; CHO-K1 cells stably overexpressing hSCTR, read-out: hSCTR potency (pEC50) (converted)) [nM]	EC50 (GLP1R; CHO-K1 cells stably overexpressing hGLP1R, read-out: hGLP1R potency (pEC50) (converted)) [nM]	SCTR EC50/GLP1R EC50 ratio (GLP1R; selectivity ratio, hSCTR vs hGLP1R)	EC50 (SCTR; [6]) [nM]	Selectivity (GLP1R)	EC50 (GLP1R; [7]) [nM]
CC[C@H](C)[C@H](NC(=O)[C@H](Cc1ccccc1)NC(=O)[C@H](CCCNC(=N)N)NC(=O)[C@H](CCC(N)=O)NC(=O)[C@H](CC(C)C)NC(=O)[C@H](C)NC(=O)[C@H](C)NC(=O)CNC(=O)[C@H](CCC(=O)O)NC(=O)[C@H](CC(C)C)NC(=O)[C@H](CC(C)C)NC(=O)[C@@H](NC(=O)[C@H](CO)NC(=O)[C@@H](NC(=O)[C@H](CC(=O)O)NC(=O)[C@H](CO)NC(=O)[C@@H](NC(=O)[C@H](Cc1ccccc1)NC(=O)[C@@H](NC(=O)CNC(=O)[C@H](CCC(=O)O)NC(=O)C(C)(C)NC(=O)[C@@H](N)Cc1c[nH]cn1)[C@@H](C)O)[C@@H](C)O)C(C)C)C(C)C)C(=O)N[C@@H](CCC(N)=O)C(=O)N[C@@H](Cc1c[nH]c2ccccc12)C(=O)N[C@@H](CC(C)C)C(=O)N[C@H](C(N)=O)C(C)C [compound 184] (H-H[Aib]EGTFTSDVSVLLEGAALQRFIQWLV-NH2)	251	0.0251	10252	0.43	260000						
CC(C)C[C@H](NC(=O)[C@H](Cc1ccccc1)NC(=O)[C@H](CCCNC(=N)N)NC(=O)[C@H](CCC(N)=O)NC(=O)[C@H](CCC(N)=O)NC(=O)C(C)(C)NC(=O)[C@H](C)NC(=O)[C@H](CCC(=O)O)NC(=O)[C@H](CCC(=O)O)NC(=O)[C@H](CCCCNC(=O)COCCOCCNC(=O)COCCOCCNC(=O)CC[C@H](NC(=O)CCCCCCCCCCCCCCCCCCC(=O)O)C(=O)O)NC(=O)[C@H](CC(C)C)NC(=O)[C@H](Cc1ccc(O)cc1)NC(=O)[C@H](CO)NC(=O)[C@@H](NC(=O)[C@H](CC(=O)O)NC(=O)[C@H](CO)NC(=O)[C@@H](NC(=O)[C@H](Cc1ccccc1)NC(=O)[C@@H](NC(=O)CNC(=O)[C@H](CCC(=O)O)NC(=O)C(C)(C)NC(=O)[C@@H](N)Cc1c[nH]cn1)[C@@H](C)O)[C@@H](C)O)C(C)C)C(=O)N[C@@H](CCC(=O)O)C(=O)N[C@@H](Cc1c[nH]cn1)C(=O)N[C@@H](CC(C)C)C(=O)N[C@H](C(N)=O)C(C)C [compound 157] (H-H[Aib]EGTFTSDVSYLK([AEEA-AEEA-γGlu-C20 diacid])EEA[Aib]QQRFLEHLV-NH2)	316	0.00251	121171	0.09	3415						
CC[C@H](C)[C@H](NC(=O)[C@H](Cc1ccccc1)NC(=O)[C@H](CCCNC(=N)N)NC(=O)[C@H](CCC(N)=O)NC(=O)[C@H](CC(C)C)NC(=O)[C@H](C)NC(=O)[C@H](C)NC(=O)CNC(=O)[C@H](CCC(=O)O)NC(=O)[C@H](CC(C)C)NC(=O)[C@H](CC(C)C)NC(=O)[C@H](Cc1ccccc1)NC(=O)[C@H](CO)NC(=O)[C@H](Cc1ccc(O)cc1)NC(=O)[C@H](CC(=O)O)NC(=O)[C@H](CO)NC(=O)[C@@H](NC(=O)[C@H](Cc1ccccc1)NC(=O)[C@@H](NC(=O)CNC(=O)[C@H](CCC(=O)O)NC(=O)C(C)(C)NC(=O)[C@@H](N)Cc1c[nH]cn1)[C@@H](C)O)[C@@H](C)O)C(=O)N[C@@H](CCC(N)=O)C(=O)N[C@@H](Cc1c[nH]c2ccccc12)C(=O)N[C@@H](CC(C)C)C(=O)N[C@H](C(N)=O)C(C)C [compound 202] (H-H[Aib]EGTFTSDYSFLLEGAALQRFIQWLV-NH2)				0.60	260000	39.8	0.0398	820			
CC(C)C[C@H](NC(=O)[C@H](Cc1ccccc1)NC(=O)[C@H](CCCNC(=N)N)NC(=O)[C@H](CCC(N)=O)NC(=O)[C@H](CC(C)C)NC(=O)C(C)(C)NC(=O)[C@H](C)NC(=O)[C@H](CCC(=O)O)NC(=O)[C@H](CCC(=O)O)NC(=O)[C@H](CCCCNC(=O)COCCOCCNC(=O)COCCOCCNC(=O)CC[C@H](NC(=O)CCCCCCCCCCCCCCCCCCC(=O)O)C(=O)O)NC(=O)[C@H](CC(C)C)NC(=O)[C@H](Cc1ccc(O)cc1)NC(=O)[C@H](CO)NC(=O)[C@@H](NC(=O)[C@H](CC(=O)O)NC(=O)[C@H](CO)NC(=O)[C@@H](NC(=O)[C@H](Cc1ccccc1)NC(=O)[C@@H](NC(=O)CNC(=O)[C@H](CCC(=O)O)NC(=O)CNC(=O)[C@@H](N)Cc1c[nH]cn1)[C@@H](C)O)[C@@H](C)O)C(C)C)C(=O)N[C@@H](CCC(=O)O)C(=O)N[C@@H](Cc1c[nH]cn1)C(=O)N[C@@H](CC(C)C)C(=O)N[C@H](C(N)=O)C(C)C [compound 142] (H-HGEGTFTSDVSYLK([AEEA-AEEA-γGlu-C20 diacid])EEA[Aib]LQRFLEHLV-NH2)	20000	0.0126	1484910	0.08	3679						
CC(C)C[C@H](NC(=O)[C@H](Cc1ccccc1)NC(=O)[C@H](CCCNC(=N)N)NC(=O)[C@H](CCC(N)=O)NC(=O)[C@H](CCC(N)=O)NC(=O)[C@H](C)NC(=O)[C@H](C)NC(=O)[C@H](CCC(=O)O)NC(=O)[C@H](CCC(=O)O)NC(=O)[C@H](CCCCNC(=O)COCCOCCNC(=O)COCCOCCNC(=O)CC[C@H](NC(=O)CCCCCCCCCCCCCCCCCCC(=O)O)C(=O)O)NC(=O)[C@H](CC(C)C)NC(=O)[C@H](CCC(=O)O)NC(=O)[C@H](CO)NC(=O)[C@@H](NC(=O)[C@H](CC(=O)O)NC(=O)[C@H](CO)NC(=O)[C@@H](NC(=O)[C@H](Cc1ccccc1)NC(=O)[C@@H](NC(=O)CNC(=O)[C@H](CCC(=O)O)NC(=O)C(C)(C)NC(=O)[C@@H](N)Cc1c[nH]cn1)[C@@H](C)O)[C@@H](C)O)C(C)C)C(=O)N[C@@H](CCC(=O)O)C(=O)N[C@@H](Cc1c[nH]cn1)C(=O)N[C@@H](CC(C)C)C(=O)N[C@H](C(N)=O)C(C)C [compound 14] (H-H[Aib]EGTFTSDVSELK([AEEA-AEEA-γGlu-C20 diacid])EEAAQQRFLEHLV-NH2)				0.08	10247				200	9917	0.02
CC(C)C[C@H](NC(=O)[C@H](Cc1ccccc1)NC(=O)[C@H](CCCNC(=N)N)NC(=O)[C@H](CCC(N)=O)NC(=O)[C@H](C)NC(=O)[C@H](C)NC(=O)[C@H](C)NC(=O)[C@H](Cc1ccccc1)NC(=O)[C@H](CCC(=O)O)NC(=O)[C@H](CCCCNC(=O)COCCOCCNC(=O)COCCOCCNC(=O)CC[C@H](NC(=O)CCCCCCCCCCCCCCCCCCC(=O)O)C(=O)O)NC(=O)[C@H](CC(C)C)NC(=O)[C@@H](NC(=O)[C@H](CO)NC(=O)[C@@H](NC(=O)[C@H](CC(=O)O)NC(=O)[C@H](CO)NC(=O)[C@@H](NC(=O)[C@H](Cc1ccccc1)NC(=O)[C@@H](NC(=O)CNC(=O)[C@H](CCC(=O)O)NC(=O)C(C)(C)NC(=O)[C@@H](N)Cc1c[nH]cn1)[C@@H](C)O)[C@@H](C)O)C(C)C)C(C)C)C(=O)N[C@@H](CCC(=O)O)C(=O)N[C@@H](Cc1c[nH]cn1)C(=O)N[C@@H](CC(C)C)C(=O)N[C@H](C(N)=O)C(C)C [compound 29] (H-H[Aib]EGTFTSDVSVLK([AEEA-AEEA-γGlu-C20 diacid])EFAAAQRFLEHLV-NH2)				0.08	28786				794	8541	0.1
CC[C@H](C)[C@H](NC(=O)[C@H](Cc1ccccc1)NC(=O)[C@H](CCCNC(=N)N)NC(=O)[C@H](CCC(N)=O)NC(=O)[C@H](CC(C)C)NC(=O)[C@H](C)NC(=O)[C@H](C)NC(=O)CNC(=O)[C@H](CCC(=O)O)NC(=O)[C@H](CC(C)C)NC(=O)[C@H](CC(C)C)NC(=O)[C@@H](NC(=O)[C@H](CO)NC(=O)[C@@H](NC(=O)[C@H](CC(=O)O)NC(=O)[C@H](CO)NC(=O)[C@@H](NC(=O)[C@H](Cc1ccccc1)NC(=O)[C@@H](NC(=O)CNC(=O)[C@H](CCC(=O)O)NC(=O)C(C)(C)NC(=O)[C@@H](N)Cc1c[nH]cn1)[C@@H](C)O)[C@@H](C)O)[C@@H](C)CC)C(C)C)C(=O)N[C@@H](CCC(N)=O)C(=O)N[C@@H](Cc1c[nH]c2ccccc12)C(=O)N[C@@H](CC(C)C)C(=O)N[C@H](C(N)=O)C(C)C [compound 116] (H-H[Aib]EGTFTSDISVLLEGAALQRFIQWLV-NH2)	79.4	0.0501	1422	0.42	202498						
